Results published in patent publication US20070197517A1, “Combination therapy for hyperproliferative disease” (Pfizer Inc., priority 2002, published 2007).
Where a name gives a salt, the structure may show the parent alone.

How the values were obtained:
[1] = test system: Human Breast Carcinoma MDA-MB-231; experiment: Anti-tumor efficacy of doxorubicin with Compound X, s.c. MDA-MB-231 xenograft; format: in vivo, Nu/Nu mice; settings: vs Gelucire vehicle day 24
Description: Exponentially grown human breast carcinoma MDA-MB-231 cells [DMEM with 10% FBS, and pen/strep (Gibco)] were harvested and inoculated subcutaneously (3-5×10^6 cells/mouse, 200 μl) into the right flank of female Nu/Nu mice (˜20 grams; Charles River Laboratories, MA). 36 days after inoculation, tumor-bearing animals of approximately 75 mm^3 in size were separated into control (n=19) or experimental groups of animals (n=7 each).
[…] The mesylate salt of 3-(4-Bromo-2,6-difluoro-benzyloxy)-5-[3-(4-pyrrolidin-1-yl-butyl)-ureido}-isothiazole-4-carboxylic acid amide was formulated in 5% Gelucire (Gattefosse Inc., France) and dosed po, qd×24 at 12.5, 25, 50 and 100 mg/kg. One group received 5% Gelucire only, (200 μl/animal, po, qd×24) which served as the vehicle control for the experiment.
(§1) Animal body weight and tumor measurements were obtained at regular intervals. Tumor volume (mm^3) was calculated using the formula length (mm)×width (mm)×width (mm)×0.5.
Mean tumor volume in Gelucire vehicle group on day 24 was used for the % growth inhibition calculation.

[2] = test system: Human Non Small Cell Lung Carcinoma EBC-1; experiment: Anti-tumor efficacy of carboplatin with Compound X, s.c. EBC-1 xenograft; format: in vivo; settings: vs saline vehicle day 14
Description: (§2) Exponentially grown human non-small cell lung carcinoma EBC-1 cells [RPMI 1640 with 10% FBS, and pen/strep (Gibco)] were harvested and inoculated subcutaneously (10^7 cells/mouse, 200 μl) into the right flank of female Nu/Nu mice (˜20 grams; Charles River Laboratories, MA). 7 days after inoculation, tumor-bearing animals of approximately 175 mm^3 in size were separated into groups of 8 animals each.
Carboplatin (Bristol Oncology Products, Princeton, N.J.) was formulated in 0.9% saline and dosed ip., q3d×4 at 25 and 50 mg/kg. One group received 0.9% saline only (200 μl/animal, ip, q3d×4) which served as the control for the experiment. […] One group received 5% Gelucire only, (200 μl/animal, po, qd×14) which served as the vehicle control for the experiment.
as §1
Mean tumor volume in saline vehicle group on day 14 was used for the % growth inhibition calculation.

[3] = test system: Human Colon Carcinoma Colo-205; experiment: Anti-tumor efficacy of CPT-11 with Compound X, s.c. Colo-205 xenograft; format: in vivo, Nu/Nu mice; settings: vs Gelucire vehicle day 12
Description: as §2, with “colon” for “non-small cell lung”, “Colo-205” for “EBC-1”, “(5×10^6” for “(10^7”, “9” for “7”, “150” for “175”, “7” for “8”
(§3) CPT-11 (Camptosar®, Pharmacia & Upjohn, Kalamazoo, Mich.) was formulated in 0.9% saline and dosed iv×1 at 25 and 75 mg/kg. One group received 0.9% saline only (200 μl/animal, iv×1) which served as the control for the experiment. The mesylate salt of 3-(4-Bromo-2,6-difluoro-benzyloxy)-5-[3-(4-pyrrolidin-1-yl-butyl)-ureido}-isothiazole-4-carboxylic acid amide was formulated in 5% Gelucire (Gattefosse Inc., France) and dosed po, qd×12 at 25, 50 and 100 mg/kg. One group received 5% Gelucire only, (200 μl/animal, po, qd×12) which served as the vehicle control for the experiment.
as §1
(§4) Mean tumor volume in Gelucire vehicle group on day 12 was used for the % growth inhibition calculation.

[4] = test system: Human Pancreatic Carcinoma Capan-1; experiment: Anti-tumor efficacy of gemcitabine hydrochloride and Compound X, s.c. Capan-1 xenograft; format: in vivo, Nu/Nu mice; settings: for % Tumor Growth Inhibition: vs Gelucire vehicle day 13
Description: (10^7 cells/mouse, 200 μl) into the right flank of female Nu/Nu mice (˜20 grams; […] An overview of each of the groups and the treatment is set forth below in the table. [table] Animal body weight and tumor measurements were obtained at regular intervals. […] Mean tumor volume in Gelucire vehicle group on day 13 was used for % growth inhibition calculation.

[5] = test system: Human Non Small Cell Lung Carcinoma EBC-1; experiment: Anti-tumor efficacy of paclitaxel (Taxol) with Compound X, s.c. EBC-1 xenograft; format: in vivo, Nu/Nu mice; settings: vs Gelucire vehicle day 15
Description: as §2, with “[(RPMI” for “[RPMI”, “s.c.” for “subcutaneously”, “MA.).” for “MA).”, “150” for “175”, “5” for “8”
Compound X (the mesylate salt of 3-(4-Bromo-2,6-difluoro-benzyloxy)-5-[3-(4-pyrrolidin-1-yl-butyl)-ureido}-isothiazole-4-carboxylic acid amide) was formulated in 5% Gelucire (Gattefosse Inc. France) and dosed po., qd×15 at 12.5 and 100 mg/kg. Taxol® (MeadJohnson Oncology Products, Princeton, N.J.) was formulated in 0.9% sterile saline and dosed ip., qd×5 at 20 mg/kg. For control purposes one group received 5% Gelucire only (200 μl/animal, po, qd×15).
as §1
Mean tumor volume in Gelucire vehicle group on day 15 was used for the % growth inhibition calculation.

[6] = test system: Human Colon Carcinoma Colo-205; experiment: Anti-tumor efficacy of 5-FU with Compound X, s.c. Colo-205 xenograft; format: in vivo; settings: vs Gelucire vehicle day 12
Description: as §2, with “colon” for “non-small cell lung”, “Colo-205” for “EBC-1”, “(5×10^6” for “(10^7”, “9” for “7”, “150” for “175”, “7” for “8”
as §3, with “5-FU (ICN Pharmaceuticals, Inc., Costa Mesa, Calif.)” for “CPT-11 (Camptosar®, Pharmacia & Upjohn, Kalamazoo, Mich.)”, “100” for “75”
as §1, §4

[7] = Compound X 25 mg/kg, po, qd × 12
[8] = Compound X 50 mg/kg, po, qd × 12
[9] = Compound X 100 mg/kg, po, qd × 12

## COc1cccc2c1C(=O)c1c(O)c3c(c(O)c1C2=O)C[C@@](O)(C(=O)CO)C[C@@H]3O[C@H]1C[C@H](N)[C@H](O)[C@H](C)O1 [Doxorubicin, reference compound]
[1]; Doxorubicin 2.5 mg/kg, ip × 1
  % Tumor Growth Inhibition: 7%
[1]; Doxorubicin 10 mg/kg, ip × 1
  % Tumor Growth Inhibition: 48%

## N.N.O=C([O-])C1(C(=O)[O-])CCC1.[Pt+2] [Carboplatin, cis-diammine-1,1-cyclobutanedicarboxylato-platinum II]
[2]; Carboplatin 25 mg/kg, ip, q3d × 4
  % Tumor Growth Inhibition: 0%
[2]; Carboplatin 50 mg/kg, ip, q3d × 4
  % Tumor Growth Inhibition: 31%

## CCc1c2c(nc3ccc(OC(=O)N4CCC(N5CCCCC5)CC4)cc13)-c1cc3c(c(=O)n1C2)COC(=O)[C@]3(O)CC [CPT-11, irinotecan HCl, reference compound]
[3]; CPT-11 25 mg/kg, iv × 1, growth instead of inhibition
  % tumor growth: (7% Tumor Growth)
[3]; CPT-11 75 mg/kg, iv × 1
  % Tumor Growth Inhibition: 5%

## NC(=O)c1c(OCc2c(F)cc(Br)cc2F)nsc1NC(=O)NCCCCN1CCCC1 [Compound X, 3-(4-Bromo-2,6-difluoro-benzyloxy)-5-[3-(4-pyrrolidin-1-yl-butyl)-ureido}-isothiazole-4-carboxylic acid amide]
[4]; Group 2: Compound X 25 mg/kg, po, qd × 13
  % Tumor Growth Inhibition: 16%
[4]; Group 3: Compound X 100 mg/kg, po, qd × 13
  % Tumor Growth Inhibition: 46%
[5]; Compound X 12.5 mg/kg, po, qd × 15
  % Tumor Growth Inhibition: 34%
[5]; Compound X 100 mg/kg, po, qd × 15
  % Tumor Growth Inhibition: 72%
[2]; Compound X 100 mg/kg, po, qd × 4
  % Tumor Growth Inhibition: 67%
[6]; [7]
  % Tumor Growth Inhibition: 21%
[6]; [8]
  % Tumor Growth Inhibition: 47%
[6]; [9]
  % Tumor Growth Inhibition: 64%
[3]; [7]
  % Tumor Growth Inhibition: 9%
[3]; [8]
  % Tumor Growth Inhibition: 28%
[3]; [9]
  % Tumor Growth Inhibition: 66%
[1]; Compound X 12.5 mg/kg, po, qd × 24, growth instead of inhibition
  % tumor growth: (10% tumor growth)
[1]; Compound X 25 mg/kg, po, qd × 24
  % Tumor Growth Inhibition: 24%
[1]; Compound X 50 mg/kg, po, qd × 24
  % Tumor Growth Inhibition: 46%
[1]; Compound X 100 mg/kg, po, qd × 24
  % Tumor Growth Inhibition: 49%

## CC(=O)O[C@H]1C(=O)[C@@]2(C)[C@H]([C@H](OC(=O)c3ccccc3)[C@]3(O)C[C@H](OC(=O)[C@H](O)[C@@H](NC(=O)c4ccccc4)c4ccccc4)C(C)=C1C3(C)C)[C@]1(OC(C)=O)CO[C@@H]1C[C@@H]2O [Taxol ®, Paclitaxel, reference compound]
[5]; Taxol 20 mg/kg, ip, qd × 5
  % Tumor Growth Inhibition: 75%

## O=c1[nH]cc(F)c(=O)[nH]1 [Compound 5-FU, 5-fluorouracil, reference compound]
[6]; 5-FU 25 mg/kg, iv × 1
  % Tumor Growth Inhibition: 24%
[6]; 5-FU 100 mg/kg, iv × 1
  % Tumor Growth Inhibition: 59%

## Nc1ccn([C@@H]2O[C@H](CO)[C@@H](O)C2(F)F)c(=O)n1 [Gemcitabine HCl, Gemcitabine hydrochloride]
[4]; Group 4: Gemcitabine HCl 1 mg/kg, ip, q3d × 4
  % Tumor Growth Inhibition: 0%
[4]; Group 5: Gemcitabine HCl 5 mg/kg, ip, q3d × 4
  % Tumor Growth Inhibition: 26%
[4]; Group 6: Gemcitabine HCl 80 mg/kg, ip, q3d × 4, day 1 volume of group = 100%
  mean tumor regression: 66% regression*
[4]; Group 6: Gemcitabine HCl 80 mg/kg, ip, q3d × 4
  % Tumor Growth Inhibition: 83%
